From ChEMBL document CHEMBL1128920, “Tetrahydrothienopyridine derivatives as novel GPIIb/IIIa antagonists” (Bioorg Med Chem Lett, 1996) come the findings set out here.

Experiment [1] has as its target T1, Integrin alpha-IIb/beta-3 (Homo sapiens, UniProt P05106+P08514). Briefly: Inhibition of biotinylated fibrinogen binding to alphaIIb-beta3 integrin. The experiment is classed as protein-complex assay.
The species named for experiment [2] is Homo sapiens. Briefly: Inhibitory activity against ADP-mediated human platelet aggregation in human platelet rich plasma. The experiment is classed as functional.
For experiment [3], the target named is T1, Integrin alpha-IIb/beta-3. Briefly: Biotinylated fibrinogen binding to alpha IIb beta-3 integrin. The experiment is classed as protein-complex assay.
A short description of experiment [4]: Inhibition of fibronectin binding to GPIIb/IIIIa fibronectin receptor.
Experiment [5] concerns the target T1, Integrin alpha-IIb/beta-3. The experiment can be described thus: Inhibition of vWF binding to GPIIb/IIIIa receptor. Type of experiment: protein-complex assay.
Experiment [6] concerns the target T1, Integrin alpha-IIb/beta-3. Briefly: Inhibition of Vitronectin binding to GPIIb/IIIIa Vitronectin receptor. Type of experiment: protein-complex assay.
Experiment [7] addresses T1, Integrin alpha-IIb/beta-3. The experiment can be described thus: Inhibition of vWF binding to alphaIIb-beta3 integrin. The experiment is classed as protein-complex assay.

pIC50: −log10 of the molar value. Values joined by “and” are separate entries in the source; they are usually repeats but may differ in a detail not shown here. Equal values may be shown once.

T1 sequence (P05106 27-788 limits assumed): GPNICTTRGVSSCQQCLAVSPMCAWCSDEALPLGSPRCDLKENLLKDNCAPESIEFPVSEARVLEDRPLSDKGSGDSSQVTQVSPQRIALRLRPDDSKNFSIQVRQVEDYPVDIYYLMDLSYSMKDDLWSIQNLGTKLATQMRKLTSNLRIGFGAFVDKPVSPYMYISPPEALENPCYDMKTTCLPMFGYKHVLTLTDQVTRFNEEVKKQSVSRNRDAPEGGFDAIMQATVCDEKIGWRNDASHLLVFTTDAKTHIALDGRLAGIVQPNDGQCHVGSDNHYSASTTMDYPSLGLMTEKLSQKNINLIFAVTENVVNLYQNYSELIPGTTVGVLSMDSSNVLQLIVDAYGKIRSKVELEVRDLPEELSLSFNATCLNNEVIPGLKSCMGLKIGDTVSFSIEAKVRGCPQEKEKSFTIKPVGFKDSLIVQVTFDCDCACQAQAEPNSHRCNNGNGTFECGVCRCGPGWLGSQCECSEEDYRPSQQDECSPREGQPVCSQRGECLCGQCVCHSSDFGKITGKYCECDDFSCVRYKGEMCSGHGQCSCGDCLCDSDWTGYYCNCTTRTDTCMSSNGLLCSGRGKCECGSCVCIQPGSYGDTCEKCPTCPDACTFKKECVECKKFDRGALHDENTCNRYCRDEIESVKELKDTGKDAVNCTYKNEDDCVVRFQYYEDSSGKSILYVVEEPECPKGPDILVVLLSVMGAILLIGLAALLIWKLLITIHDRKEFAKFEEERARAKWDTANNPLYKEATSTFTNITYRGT
T1 sequence (P08514 32-887 limits assumed): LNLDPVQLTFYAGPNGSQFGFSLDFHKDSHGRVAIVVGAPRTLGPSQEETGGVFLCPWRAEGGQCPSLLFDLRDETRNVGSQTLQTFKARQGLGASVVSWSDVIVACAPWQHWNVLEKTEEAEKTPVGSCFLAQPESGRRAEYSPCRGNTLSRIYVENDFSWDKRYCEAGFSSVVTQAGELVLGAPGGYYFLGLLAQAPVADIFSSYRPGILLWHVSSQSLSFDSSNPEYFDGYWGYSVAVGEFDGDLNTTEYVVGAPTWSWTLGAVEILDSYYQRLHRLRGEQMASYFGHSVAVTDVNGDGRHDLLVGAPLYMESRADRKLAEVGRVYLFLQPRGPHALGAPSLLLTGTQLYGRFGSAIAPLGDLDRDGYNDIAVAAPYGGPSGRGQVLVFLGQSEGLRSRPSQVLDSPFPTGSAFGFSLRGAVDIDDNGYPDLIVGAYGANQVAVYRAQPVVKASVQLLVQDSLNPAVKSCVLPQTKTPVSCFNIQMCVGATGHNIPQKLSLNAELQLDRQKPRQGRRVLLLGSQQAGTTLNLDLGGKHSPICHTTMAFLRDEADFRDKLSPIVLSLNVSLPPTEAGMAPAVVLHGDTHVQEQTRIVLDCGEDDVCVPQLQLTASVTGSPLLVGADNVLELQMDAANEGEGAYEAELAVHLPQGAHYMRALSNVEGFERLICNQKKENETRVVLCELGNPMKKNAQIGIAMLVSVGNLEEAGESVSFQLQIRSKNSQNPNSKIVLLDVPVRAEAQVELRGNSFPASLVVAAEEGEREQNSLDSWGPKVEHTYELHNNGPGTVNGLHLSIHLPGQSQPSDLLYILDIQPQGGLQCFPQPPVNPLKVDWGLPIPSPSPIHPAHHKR
T1 sequence (P08514 891-1039 limits assumed): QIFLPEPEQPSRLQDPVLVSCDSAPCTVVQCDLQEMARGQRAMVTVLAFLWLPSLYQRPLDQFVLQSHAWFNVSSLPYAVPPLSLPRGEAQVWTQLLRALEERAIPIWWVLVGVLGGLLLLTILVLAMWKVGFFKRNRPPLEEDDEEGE

For `O=C(O)COc1ccc(C(=O)CNC(=O)CCCC2CCNCC2)cc1OCC(=O)O`, the pIC50 in experiment [1] is below 7.00; in experiment [2], 5.05.

For `O=C(O)COc1cnc(C(=O)CNC(=O)c2cc3c(s2)CCNC3)cc1OCC(=O)O`, the pIC50 in experiment [3] was 8.01; in experiment [2] it was 6.33.

Take `O=C(O)COc1ccc(C(=O)CNC(=O)c2sc3c(c2Cc2ccccc2)CNCC3)cc1OCC(=O)O`: the pIC50 in experiment [3] was 7.21; in experiment [2] it was below 5.00.

Take `NC(N)=NCCC[C@H](N)C(=O)NCC(=O)N[C@@H](CC(=O)O)C(=O)O`: the pIC50 in experiment [4] was 6.29; in experiment [1] it was 7.12; in experiment [5], 5.40; in experiment [6], 5.85; in experiment [2], 4.06.

On to `O=C(O)COc1ccc(C(=O)CNC(=O)c2cc3c(s2)CNC3)cc1OCC(=O)O`, for which the pIC50 in experiment [1] was below 7.00; in experiment [2], 5.80.

Regarding `O=C(O)COc1ccc(C(=O)CNC(=O)c2cc3c(s2)CCNCC3)cc1OCC(=O)O`, the pIC50 in experiment [3] is 8.22; in experiment [2], 6.82.

As for `O=C(O)COc1ccc(C(=O)CNC(=O)c2cc3c(s2)CCNC3)cc1OCC(=O)O`, the pIC50 was below 4.00 in experiment [4]; 8.33 and 8.25 in experiment [3]; below 4.00 in experiment [6]; 7.55 in experiment [7]; 6.80 in experiment [2].

In the case of `O=C(O)COc1ccc(C(=O)CNC(=O)c2cc3c(s2)CCCNC3)cc1OCC(=O)O`, the pIC50 in experiment [3] was 8.06; in experiment [2], 5.72.

For the compound `O=C(O)COc1ccc(C(=O)CNC(=O)c2cc3c(s2)CCNC3)cc1`, the pIC50 in experiment [3] was 7.51; in experiment [2], 5.92.

`O=C(O)COc1cc(OCC(=O)O)cc(C(=O)CNC(=O)c2cc3c(s2)CCNC3)c1`: the pIC50 in experiment [3] was below 6.00; in experiment [2] it was below 5.00.

In the case of `O=C(O)COc1ccc(C(=O)CNC(=O)c2cc3c(s2)CCNC3)c(OCC(=O)O)c1`, the pIC50 in experiment [3] is below 7.00; in experiment [2], 5.82.

Consider `O=C(O)COc1ccc(C(=O)CNC(=O)c2cc3c(s2)CCNC3)nc1`, for which the pIC50 in experiment [3] was 7.00; in experiment [2], 6.14.

Consider `O=C(O)COc1ccc(C(=O)CNC(=O)c2cc3c(s2)CNCC3)cc1OCC(=O)O`, for which the results for the pIC50 in experiment [3] and in experiment [2] were 8.85 and 6.64, respectively.

For the compound `Cc1c(C(=O)NCC(=O)c2ccc(OCC(=O)O)c(OCC(=O)O)c2)sc2c1CNCC2`, the pIC50 is 7.74 in experiment [3] and 5.60 in experiment [2].

Turning to `O=C(O)COc1ccc(C(=O)CNC(=O)C2CCNCC2)cc1OCC(=O)O`, the pIC50 in experiment [3] was below 6.00; in experiment [2], 5.01.

Regarding `O=C(O)COc1ccc(C(=O)CNC(=O)CCC2CCNCC2)cc1OCC(=O)O`, the negative logarithm of the IC50 (pIC50) is 7.38 in experiment [3] and 6.46 in experiment [2].

For the compound `NCC1CCC(C(=O)NCC(=O)c2ccc(OCC(=O)O)c(OCC(=O)O)c2)CC1` (centres undefined), the values for the pIC50 in experiment [1] and in experiment [2] were 6.14 and 5.37, respectively.

Take `O=C(O)COc1ccc(C(=O)CNC(=O)CC2CCNCC2)cc1OCC(=O)O`: the pIC50 in experiment [3] is below 7.00; in experiment [2], 5.00.

Consider `O=C(O)CCc1ccc(C(=O)CNC(=O)c2cc3c(s2)CCNC3)cc1`, for which the pIC50 in experiment [3] was 7.10; in experiment [2] it was below 5.00.

Broadly, the pIC50 is −log10 of the IC50, conventionally taken in molar units. Higher therefore signals a low IC50.
